From patent publication EP0123485A1, “Colon-specific prodrug, the preparation and uses thereof” (priority 1983, dated 1984)
Like-named read-outs stand apart in the source and are kept apart here.

Legend:
[1] = physchem; format: physicochemical
Experimental: The partitioning of prodrugs and free steroids between n-octanol and an aqueous phase (0.01 phosphate buffer, pH 7.0) were determined at 37 °C. Both octanol and buffer were saturated with the relevant aqueous or organic phase before use. […] The intitial concentration of steroid was 10 mM dissolved in the organic phase. The amount of glycoside and free steroid in the aqueous phase at equilibrium was measured spectrophotometrically at 239 nm for the dexamethasone and fludrocortisone compounds and 242 nm for the prednisolone and hydrocortisone compounds. The concentration of glycoside or free steroid in the octanol phase was determined by difference.

[2] = Rate of hydrolysis in homogenized cecal contents; settings: cecal contents; 1.0 mM prodrug, 37 C; release of free steroid by HPLC
From the text: (§1) (The entire small intestine was divided into two, equal length segments to give PSI and DSI.) Gastrointestinal contents were obtained from male, Sprague-Dawley rats (300-400 g) which had been maintained on a stock diet (Purina rat chow) and water ad libitum. The intestinal contents of each section were pooled from four animals for each assay. […] Following removal, the contents were quickly weighed, then diluted to 100 milliliters (stomach, PSI, and DSI) or 200 milliliters (cecum) with cold 0.01 M phosphate buffer, pH 7.0. […] Homogenates were then stored on ice (ca 30 min). […] The reaction was run at 37 °C in a shaking water bath. The reaction was stopped after 10, 20, or 30 min by addition of 0.2 N NaOH (0.25 milliliters).
(§2) Stomach and PSI contents were diluted to 50 mL with 0.01 M phosphate buffer, pH 7.0, DSI contents to 25 mL, and cecal contents to 200 mL, prior to homogenization. The homogenates (2.1 mL of stomach, PSI, and DSI and 1.7 mL of cecum) were added to the appropriate substrate solution (0.01 M phosphate buffer, pH 7.0) to give 1.0 mM substrate in a total volume of 2.5 mL. At various times up to 30 min, aliquots (0.3 mL) were removed and quenched with MeOH (4.7 mL). After centrifugation (5,000 g, 10 min), the samples were diluted (1:1) with 0.01 M KH2PO4 and 20 microliters of the resulting solution was injected directly onto the HPLC column for analysis.

[3] = Rate of hydrolysis in homogenized stomach contents; settings: 1.0 mM prodrug, 37 C, release of free steroid by HPLC
[4] = Rate of hydrolysis in homogenized distal small intestine contents; settings: for Sp. act. / Tot. act.: DSI contents, 1.0 mM prodrug, 37 C, release of free steroid by HPLC; for hydrolysis by DSI contents, comparison in words: homogenates of DSI contents
From the text: as §1, §2

[5] = Rate of hydrolysis in homogenized proximal small intestine contents; settings: PSI contents; 1.0 mM prodrug, 37 C; release of free steroid by HPLC
[6] = Recovery of steroid glycoside and free steroid from intestinal contents and tissues after intragastric administration; format: in vivo, Sprague-Dawley rats; settings: for site of absorption of the free steroid: free steroid given orally (control experiments, FIGURE 4); for Recovery from the cecum / Recovery from the small intestine: average of 4 animals; for animals in which the administered dose reached the cecum by the time of sacrifice: sixteen rats per glucoside, sacrifice at 3-6 h
Experimental: Male, Sprague-Dawley rats (ca 250 g) were maintained on laboratory rat chow and water ad lib. These rats were fasted overnight (16 hr.) prior to administration of glucoside or free steroid. Water bottles were removed from the cages at least 30 min prior to drug administration. Prednisolone glucoside, 2, (7.5 mg) or dexamethasone glucoside, 1, (7.5 mg) was administered by gastric intubation as a solution (0.5 mL) of water/95% ethanol (3:1). Prednisolone, 4, (5.25 mg) or dexamethasone, 3, (5.1 mg) was administered as a solution (0.5 mL) of water/95% ethanol (1:1). After the appropriate interval of time -3, 4, 5 or 6 hr.- the animals were sacrificed by carbon dioxide anesthesia followed by thoractomy. The small intestine and cecum were removed and cut into segments. Contents were separated from the tissues by rinsing the segments with cold, 0.9% saline (5.0 mL). The contents were immediately diluted to 30 mL with methanol. The tissues were suspended in 0.01 M KH2P04 (5.0 mL). Then an internal standard, either prednisolone, 4, or dexamethasone, 3, depending on the experimental steroid, was added to all the samples. Both the contents and tissues were then homogenized with a Polytron Homogenizer (Brinkman Inst. Co.) at med. speed for 1-2 min. The contents were then diluted to 40 mL total volume with methanol. The tissues were diluted to 25 mL total volume with methanol. All the samples were centrifuged (5,000 g, 15 min) and then the supernatant solutions were passed through membrane filters (0.45 micrometers, Versapor 800). The samples (1.4 mL) were then diluted with 0.01 M KH2PO4 (0.6 mL) and 20 microliters of the resulting solution injected directly onto the HPLC column for analysis.

[7] = Incubation with homogenized rat feces; format: in vitro ADME
Experimental: Glucosides 1 and 2 (5.0 mg) were also incubated at 37 °C with homogenized rat feces (0.5 g/10 milliliters 0.01 M phosphate buffer, pH 7.5). The feces were obtained from rats maintained on a high cellulose diet. […] Aliquots (0.2 milliliters) were removed and quenched with MeOH (3.66 milliliters). After centrifugation (5,000g, 10 min), the samples were passed through membrane filters (0.45 micrometer pore, Versapor 450, Gelman Sciences, Inc.). They were then diluted (1:1) with 0.01 M KH2PO4. Twenty microliters of the resulting solution were injected directly onto the HPLC column for analysis.

[8] = KM(app) and Vmax determinations (Eadie-Hofstee plots); format: in vitro ADME, rat; settings: prodrug 0.5-48 micromolar, 0.8 mL cecal homogenate, 15 min, 37 C, release of free steroid by HPLC
Experimental: KM(app) and VMax Determinations. The KM(app)-Vmax for the hydrolysis of p-NP-glc and p-NP-gal were determined using pooled cecal homogenates (200 mL) as described above. A range of substrate (56-1000 micromolar; final volume 2.25 mL) concentrations, spanning their apparent KM, was used for each reaction. The amount of cecal homogenate used was 0.04 mL. Velocities were obtained, in duplicate, at 37 °C in a shaking water bath and the reaction stopped by addition of 0.2 N NaOH (0.25 mL) after 15 min. Release of p-nitrophenol was measured spectrophotometrically at 403 nm. Eadie-Hofstee plots were used to determine the KM(app) (micromolar) and Vmax (micromolar/min/g) of both reactions. The wet weight (g), measured immediately after removal and pooling, was used throughout.
Again, cecal contents from four rats were pooled, weighed, diluted (100 mL, 0.01 M phosphate buffer, pH 7.0) and homogenized. A range of substrate concentrations (0.5-48 micromolar, final volume 2.5 mL) spanning the apparent KM, was used for each reaction. The amount of cecal homogenate used was 0.8 mL. Reactions were run, in duplicate, at 37°C in a shaking water bath. After 15 min, the reactions were stopped by removing aliquots (0.3 mL) and quenching them with MeOH (4.7 mL). […] Again, Eadie-Hofstee plots were used to determine the KM(app) and VMax.

[9] = tested on: beta-glucosidase (EC 3.2.1.21, from almonds); assay: Hydrolysis by commercial beta-glucosidase; format: biochemical; settings: 37 C, acetate buffer pH 5.0
Experimental: Prednisolone glucoside, 2, (5.0 mg) or dexamethasone glucoside, 1, (5.0 mg) was incubated at 37 °C in an […] acetate buffer, pH 5.0 (10.0 mL) with beta-glucosidase (EC 3.2.1.21, from almonds, one unit liberates 1.0 micromole of glucose from salicin per min at pH 5.0 at 370C). Prednisolone glucoside, 2, and dexamethasone glucoside, 1, were treated with 50 and 500 units of enzyme, respectively. At various times, aliquots (0.1 mL) were removed and quenched with methanol (9.9 mL).

[10] = 4 h after administration of 7.5 mg of glucoside 1
[11] = 5 h after administration of 7.5 mg of glucoside 1
[12] = 6 h after administration of 7.5 mg of glucoside 1
[13] = in vivo, po, rat, 7.5 mg glucoside intragastric, estimated from unhydrolyzed glucoside in lower small intestine at 4 h, read-out: part of an oral dose of glucoside that reached (was delivered to) the cecum
[14] = rat, in vivo, po, 7.5 mg, 4 h after 7.5 mg glucoside, rat, read-out: administered dose recovered from the lower small intestine contents unhydrolyzed

| Structure (SMILES) | Sp. act. [2] | Tot. act. [2] | Sp. act. [3] | Tot. act. [3] | Sp. act. [4] | Tot. act. [4] | hydrolysis by DSI contents, comparison in words [4] | Sp. act. [5] | Tot. act. [5] | recovery at 4 h [6, 13] | recovery at 4 h [6, 14] | animals in which the administered dose reached the cecum by the time of sacrifice [6] | other results |
| --- | --- | --- | --- | --- | --- | --- | --- | --- | --- | --- | --- | --- | --- |
| CC12C=CC(=O)C=C1CCC1C2C(O)CC2(C)C1CCC2(O)C(=O)COC1OC(CO)C(OC2OC(CO)C(O)C(O)C2O)C(O)C1O [Compound 13, 11 beta, 17 alpha-Dihydroxy-3, 20-dioxopregna-1,4-diene-21-yl beta-D-cellbioside] | 109 nmoles/min/g wet weight | 2.2 µmol/min | 7.5 nmoles/min/g wet weight | 0.01 µmol/min | 32.5 nmoles/min/g wet weight | 0.64 µmol/min | only half that of glucoside 2 and one-fourth that of galactoside 10 | 26.0 nmoles/min/g wet weight | 0.11 µmol/min | – | – | – | logD at 0.5 h ([1]; 0.01 m phosphate buffer, pH 7, Log P): -0.56 |
| C[C@]12C=CC(=O)C=C1CC[C@@H]1[C@@H]2[C@@H](O)C[C@@]2(C)[C@H]1CC[C@]2(O)C(=O)CO [Compound 4, 11 beta, 17 alpha-21-Trihydroxy-3, 20-dioxpregna-1,4-diene, reference compound] | – | – | – | – | – | – | – | – | – | – | – | – | site of absorption of the free steroid ([6]; rat): absorbed almost completely from the small intestine; site of absorption of the free steroid ([6]; rat, listed as prednisolone): absorbed almost exclusively from the small intestine; part of the oral dose of free steroid that reached the cecum ([6]; rat, in vivo, po): less than 1%; free steroid recovered in the cecum, as equivalent of the administered dose ([6]; rat, in vivo, po, 5 h): 11%; logD at 0.5 h ([1]; n-octanol / 0.01 M phosphate buffer pH 7.0, 37 C, agitated 30 min, read-out: Log P): 1.55 |
| CC1CC2C3CCC4=CC(=O)C=CC4(C)C3(F)C(O)CC2(C)C1(O)C(=O)COC1OC(CO)C(O)C(O)C1O [Compound 1, 9 alpha-Fluoro-11 beta, 17 alpha-dihydroxy-16 alpha-methyl-3, 20-dioxopregna-l, 4-dien-21-yl beta-D-glucopyranoside] | 141 nmoles/min/g wet weight | 3.5 µmol/min | 6.8 nmoles/min/g wet weight | 0.12 µmol/min | 19.3 nmoles/min/g wet weight | 0.34 µmol/min | more resistant to hydrolysis than the other prodrugs | 11.0 nmoles/min/g wet weight | 0.07 µmol/min | ~60% | 59% | eleven of the sixteen animals | Recovery from the cecum ([6]; 3 h after administration of 7.5 mg of glucoside 1): 0.21 mg; Recovery from the small intestine ([6]; 3 h after intragastric administration of 7.5 mg of glucoside 1): 5.61 mg^a; Recovery from the cecum [6, 10]: 0.02 mg; Recovery from the small intestine [6, 10]: 5.00 mg; Recovery from the cecum [6, 11]: 0.23 mg; Recovery from the small intestine [6, 11]: 0.24 mg; Recovery from the cecum [6, 12]: 0.04 mg; Recovery from the small intestine [6, 12]: 0.94 mg; time to reach the colon ([6]; intragastric administration to rats): 4 to 5 h; part of an oral dose of glucoside that reached (was delivered to) the cecum ([6]; rat, 7.5 mg glucoside intragastric, estimated from unhydrolyzed glucoside in lower small intestine at 4 h, listed as glucoside 1): about half of the dose; recovery at 3 h ([6]; rat, in vivo, po, 3 h after oral administration, rat, read-out: dose recovered (intact) from the intestinal lumen): 78%; hydrolysis on incubation with homogenized rat feces ([7]; 37 C, 0.01 M phosphate buffer pH 7.5): extensive hydrolysis; Km ([8]; listed as glucoside 1): 2.5 µM; Vmax ([8]; listed as glucoside 1): 2.2 µM/min/g; Sp. act. ([4]; listed as glucoside 1): 19 nmoles/min/g wet weight; hydrolysis by DSI contents, comparison in words ([4]; listed as glucoside 1): about three times slower |
| CC12C=CC(=O)C=C1CCC1C2C(O)CC2(C)C1CCC2(O)C(=O)COC1OC(CO)C(O)C(O)C1O [Compound 2, 11 beta, 17 alpha-Dihydroxy-3, 20-dioxopregna-l, 4-dien-21-yl beta-D-glucopyranoside] | 265 nmoles/min/g wet weight | 6.6 µmol/min | 6.8 nmoles/min/g wet weight | 0.12 µmol/min | 56.8 nmoles/min/g wet weight | 1.0 µmol/min | – | 12.2 nmoles/min/g wet weight | 0.07 µmol/min | < 15% | 14.8% | eight of sixteen animals | time to reach the colon ([6]; rat, in vivo): 4 to 5 h; relative rate of hydrolysis by commercial beta-glucosidase ([9]; listed as Glucoside 2): several orders of magnitude faster than was glucoside 1; relative rate of hydrolysis by commercial beta-glucosidase ([9]; listed as glucoside 2): much more active towards glucoside 2 than towards glucoside 1; hydrolysis on incubation with homogenized rat feces ([7]; pH 7.5): extensive hydrolysis; Km ([8]; listed as glucoside 2): 4.5 µM; Vmax ([8]; listed as glucoside 2): 2.6 µM/min/g |
| C[C@]12CCC(=O)C=C1CC[C@@H]1[C@@H]2[C@@H](O)C[C@@]2(C)[C@H]1CC[C@]2(O)C(=O)CO [Compound 6, 11 beta, 17 alpha-21-Trihydroxy-3, 20-dioxopregna-4-ene] | – | – | – | – | – | – | – | – | – | – | – | – | Log P ([1]; n-octanol / 0.01 M phosphate buffer pH 7.0, 37 C, agitated 30 min): 1.54 |
